Reference: patent publication US9988430B2, “Stable GLP-1 based GLP-1/glucagon receptor co-agonists” (Novo Nordisk A/S, priority 2014, dated 2018)
*1 amine or outer side, *2 acyl side, *3 side chain or, on linkers, in order; H or OH if unused. Where a SMILES comes first, the peptide text is derived from it. Bridges are numbered along the chain shown (N, C = ends). Roman numbers before positions name the chains, in order. Side-chain parts run from the residue outwards. [ ]: non-standard residue; d: D form. The star is where a group is joined. C18 diacid = O=C(O)CCCCCCCCCCCCCCCCC(=O)*; γGlu = O=C(O)[C@H](CCC(=O)[*:2])N[*:1]; Desaminohistidyl = O=C(CCc1c[nH]cn1)*; Ac4c = NC1(C(=O)O)CCC1; AEEA = NCCOCCOCC(=O)O; Aib = CC(C)(N)C(=O)O

Assays:
[1] = Assay (V): chemical stability assessment by RP-UPLC; format: physicochemical; details: 14 days at 37° C. in phosphate buffer (pH 7.3)
Outline: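 Lyophilized peptide dissolved in 8 mM phosphate pH 8.6, adjusted to pH 7.3, final 333 μM, held 14 days at 5° C and 37° C. Purity is main-peak area % by RP-UPLC with UV detection at 215 nm. Degradation is the 5° C minus 37° C purity difference divided by the 5° C purity.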

[2] = target: T1, human GLP-1 receptor (Homo sapiens, UniProt P43220); assay: Assay (I)(a): GLP-1 receptor potency, CRE luciferase reporter gene assay in BHK cells; format: cell-based; details: BHK cells expressing human GLP-1 receptor, read-out: EC50 GLP-1R
T1 construct: expressed in transfected cells; host or cells: membranes of BHK cells, parent line BHKTS13, clone FCW467-12A
Outline: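 BHK cells (clone FCW467-12A/KZ10-1), 5×10EE3/well, exposed 3 h at 37° C to compound at 1×10EE-13 to 1×10EE-6 M final in medium with 2% ovalbumin and 0.2% Pluronic F-68. Luciferase luminescence read; EC50 (pM) from four-parameter fit.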

T1 sequence (P43220 24-463): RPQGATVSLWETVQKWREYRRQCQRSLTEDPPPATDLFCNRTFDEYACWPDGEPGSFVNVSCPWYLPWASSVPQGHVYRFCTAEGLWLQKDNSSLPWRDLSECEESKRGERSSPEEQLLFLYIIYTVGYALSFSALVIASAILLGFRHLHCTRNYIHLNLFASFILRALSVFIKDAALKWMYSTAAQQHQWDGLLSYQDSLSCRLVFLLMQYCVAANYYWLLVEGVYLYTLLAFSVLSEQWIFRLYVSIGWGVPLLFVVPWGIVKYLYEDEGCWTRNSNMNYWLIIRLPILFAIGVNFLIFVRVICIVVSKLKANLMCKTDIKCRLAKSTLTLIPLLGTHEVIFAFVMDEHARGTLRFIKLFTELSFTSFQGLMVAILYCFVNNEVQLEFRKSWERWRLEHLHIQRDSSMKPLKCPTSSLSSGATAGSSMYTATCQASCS

SMILES	Chemical stability: Chemical degradation over 14 days at 37° C. [1]	EC50 [2]
CC[C@H](C)[C@H](NC(=O)[C@H](Cc1ccccc1)NC(=O)[C@H](CCC(=O)O)NC(=O)[C@H](CCCNC(=N)N)NC(=O)[C@H](C)NC(=O)[C@H](C)NC(=O)[C@H](CCC(N)=O)NC(=O)[C@H](CCC(=O)O)NC(=O)[C@H](CCC(=O)O)NC(=O)[C@H](CC(C)C)NC(=O)[C@H](Cc1ccc(O)cc1)NC(=O)[C@H](CCCCN)NC(=O)[C@H](CO)NC(=O)[C@@H](NC(=O)[C@H](CC(=O)O)NC(=O)[C@H](CO)NC(=O)[C@@H](NC(=O)[C@H](Cc1ccccc1)NC(=O)[C@@H](NC(=O)CNC(=O)[C@H](Cc1c[nH]cn1)NC(=O)C(C)(C)NC(=O)CCc1c[nH]cn1)[C@@H](C)O)[C@@H](C)O)C(C)C)C(=O)N[C@@H](C)C(=O)N[C@@H](Cc1c[nH]c2ccccc12)C(=O)N[C@@H](CC(C)C)C(=O)N[C@@H](CC(C)C)C(=O)N[C@@H](CCCCNC(=O)CNC(=O)[C@H](CO)NC(=O)[C@H](CCC(=O)O)NC(=O)CNC(=O)[C@H](CO)NC(=O)CC[C@H](NC(=O)CC[C@H](NC(=O)CCCCCCCCCCCCCCCCC(=O)O)C(=O)O)C(=O)O)C(=O)N[C@H](C(N)=O)[C@@H](C)O [Example 3, N^ε34-[2-[[(2S)-2-[[(2S)-4-carboxy-2-[[2-[[(2S)-2-[[(4S)-4-carboxy-4-[[(4S)-4-carboxy-4-(17-carboxyheptadecanoylamino)butanoyl]amino]butanoyl]amino]-3-hydroxypropanoyl]amino]acetyl]amino]butanoyl]amino]-3-hydroxypropanoyl]amino]acetyl]-[Imp7,Aib8,His9,Lys18,Glu22,Arg26,Leu33,Thr35]-GLP-1-(7-35)-peptide amide] (I: Desaminohistidyl-[Aib]HGTFTSDVSKYLEEQAAREFIAWLLKT-NH2 / II: {C18 diacid-γGlu-γGlu}-SGESG; amide I:27-II:C)	−0.3%	5 pM
CC[C@H](C)[C@H](NC(=O)[C@H](Cc1ccccc1)NC(=O)[C@H](CCC(=O)O)NC(=O)[C@H](CCCNC(=N)N)NC(=O)[C@H](C)NC(=O)[C@H](C)NC(=O)[C@H](CCC(N)=O)NC(=O)[C@H](CCC(=O)O)NC(=O)[C@H](CCC(=O)O)NC(=O)[C@H](CC(C)C)NC(=O)[C@H](Cc1ccc(O)cc1)NC(=O)[C@H](CCCCN)NC(=O)[C@H](CO)NC(=O)[C@@H](NC(=O)[C@H](CC(=O)O)NC(=O)[C@H](CO)NC(=O)[C@@H](NC(=O)[C@H](Cc1ccccc1)NC(=O)[C@@H](NC(=O)CNC(=O)[C@H](Cc1c[nH]cn1)NC(=O)C(C)(C)NC(=O)CCc1c[nH]cn1)[C@@H](C)O)[C@@H](C)O)C(C)C)C(=O)N[C@@H](C)C(=O)N[C@@H](Cc1c[nH]c2ccccc12)C(=O)N[C@@H](CC(C)C)C(=O)N[C@@H](CC(C)C)C(=O)N[C@@H](CCCCNC(=O)CC[C@H](NC(=O)CC[C@H](NC(=O)CC[C@H](NC(=O)CC[C@H](NC(=O)CCCCCCCCCCCCCCCCC(=O)O)C(=O)O)C(=O)O)C(=O)O)C(=O)O)C(=O)N[C@H](C(N)=O)[C@@H](C)O [Example 6, N^ε34-[(4S)-4-carboxy-4-[[(4S)-4-carboxy-4-[[(4S)-4-carboxy-4-[[(4S)-4-carboxy-4-(17-carboxyheptadecanoylamino)butanoyl]amino]butanoyl]amino]butanoyl]amino]butanoyl]-[Imp7,Aib8,His9,Lys18,Glu22,Arg26,Leu33,Thr35]-GLP-1-(7-35)-peptide amide] (Desaminohistidyl-[Aib]HGTFTSDVSKYLEEQAAREFIAWLLK([γGlu-γGlu-γGlu-γGlu-C18 diacid])T-NH2)	0.1%	7 pM
CC[C@H](C)[C@H](NC(=O)[C@H](Cc1ccccc1)NC(=O)[C@H](CCC(=O)O)NC(=O)[C@H](CCCNC(=N)N)NC(=O)[C@H](C)NC(=O)[C@H](C)NC(=O)[C@H](CCC(N)=O)NC(=O)[C@H](CCC(=O)O)NC(=O)[C@H](CCC(=O)O)NC(=O)[C@H](CC(C)C)NC(=O)[C@H](Cc1ccc(O)cc1)NC(=O)[C@H](CCCCN)NC(=O)[C@H](CO)NC(=O)[C@@H](NC(=O)[C@H](CC(=O)O)NC(=O)[C@H](CO)NC(=O)[C@@H](NC(=O)[C@H](Cc1ccccc1)NC(=O)[C@@H](NC(=O)CNC(=O)[C@H](Cc1c[nH]cn1)NC(=O)C(C)(C)NC(=O)CCc1c[nH]cn1)[C@@H](C)O)[C@@H](C)O)C(C)C)C(=O)N[C@@H](C)C(=O)N[C@@H](Cc1c[nH]c2ccccc12)C(=O)N[C@@H](CC(C)C)C(=O)N[C@@H](CC(C)C)C(=O)N[C@@H](CCCCNC(=O)CNC(=O)[C@H](CO)NC(=O)CC[C@H](NC(=O)CC[C@H](NC(=O)CCCCCCCCCCCCCCCCC(=O)O)C(=O)O)C(=O)O)C(=O)N[C@H](C(N)=O)[C@@H](C)O [Example 4, N^ε34-[2-[[(2S)-2-[[(4S)-4-carboxy-4-[[(4S)-4-carboxy-4-(17-carboxyheptadecanoylamino)butanoyl]amino]butanoyl]amino]-3-hydroxypropanoyl]amino]acetyl]-[Imp7,Aib8,His9,Lys18,Glu22,Arg26,Leu33,Thr35]-GLP-1-(7-35)-peptide amide] (Desaminohistidyl-[Aib]HGTFTSDVSKYLEEQAAREFIAWLLK([Gly-Ser-γGlu-γGlu-C18 diacid])T-NH2)	0.2%	7 pM
CC[C@H](C)[C@H](NC(=O)[C@H](Cc1ccccc1)NC(=O)[C@H](CCC(=O)O)NC(=O)[C@H](CCCNC(=N)N)NC(=O)[C@H](C)NC(=O)[C@H](C)NC(=O)[C@H](CCCNC(=N)N)NC(=O)CNC(=O)[C@H](CCC(=O)O)NC(=O)[C@H](CC(C)C)NC(=O)[C@H](Cc1ccc(O)cc1)NC(=O)[C@H](CCCCN)NC(=O)[C@H](CO)NC(=O)[C@@H](NC(=O)[C@H](CC(=O)O)NC(=O)[C@H](CO)NC(=O)[C@@H](NC(=O)[C@H](Cc1ccccc1)NC(=O)[C@@H](NC(=O)CNC(=O)[C@H](Cc1c[nH]cn1)NC(=O)[C@H](C)NC(=O)CCc1c[nH]cn1)[C@@H](C)O)[C@@H](C)O)C(C)C)C(=O)N[C@@H](C)C(=O)N[C@@H](Cc1c[nH]c2ccccc12)C(=O)N[C@@H](CC(C)C)C(=O)N[C@@H](CC(C)C)C(=O)N[C@@H](CCCCNC(=O)COCCOCCNC(=O)COCCOCCNC(=O)CC[C@H](NC(=O)CC[C@H](NC(=O)CC[C@H](NC(=O)CCCCCCCCCCCCCCCCC(=O)O)C(=O)O)C(=O)O)C(=O)O)C(=O)N[C@H](C(N)=O)[C@@H](C)O [Example 10, N^ε34-[2-[2-[2-[[2-[2-[2-[[(4S)-4-carboxy-4-[[(4S)-4-carboxy-4-[[(4S)-4-carboxy-4-(17-carboxyheptadecanoylamino)butanoyl]amino]butanoyl]amino]butanoyl]amino]ethoxy]ethoxy]acetyl]amino]ethoxy]ethoxy]acetyl]-[Imp7,His9,Lys18,Arg23,Arg26,Leu33,Thr35]-GLP-1-(7-35)-peptide amide] (Desaminohistidyl-AHGTFTSDVSKYLEGRAAREFIAWLLK([AEEA-AEEA-γGlu-γGlu-γGlu-C18 diacid])T-NH2)	2.0%	8 pM
CC[C@H](C)[C@H](NC(=O)[C@H](Cc1ccccc1)NC(=O)[C@H](CCC(=O)O)NC(=O)[C@H](CCCNC(=N)N)NC(=O)[C@H](C)NC(=O)[C@H](C)NC(=O)[C@H](CCCNC(=N)N)NC(=O)CNC(=O)[C@H](CCC(=O)O)NC(=O)[C@H](CC(C)C)NC(=O)[C@H](Cc1ccc(O)cc1)NC(=O)[C@H](CCCCN)NC(=O)[C@H](CO)NC(=O)[C@@H](NC(=O)[C@H](CC(=O)O)NC(=O)[C@H](CO)NC(=O)[C@@H](NC(=O)[C@H](Cc1ccccc1)NC(=O)[C@@H](NC(=O)CNC(=O)[C@H](Cc1c[nH]cn1)NC(=O)C1(NC(=O)CCc2c[nH]cn2)CCC1)[C@@H](C)O)[C@@H](C)O)C(C)C)C(=O)N[C@@H](C)C(=O)N[C@@H](Cc1c[nH]c2ccccc12)C(=O)N[C@@H](CC(C)C)C(=O)N[C@@H](CC(C)C)C(=O)N[C@@H](CCCCNC(=O)CNC(=O)[C@H](CO)NC(=O)[C@H](CCC(=O)O)NC(=O)CNC(=O)[C@H](CO)NC(=O)CC[C@H](NC(=O)CC[C@H](NC(=O)CCCCCCCCCCCCCCCCC(=O)O)C(=O)O)C(=O)O)C(=O)N[C@H](C(N)=O)[C@@H](C)O [Example 20, N^ε34-[2-[[(2S)-2-[[(2S)-4-carboxy-2-[[2-[[(2S)-2-[[(4S)-4-carboxy-4-[[(4S)-4-carboxy-4-(17-carboxyheptadecanoylamino)butanoyl]amino]butanoyl]amino]-3-hydroxypropanoyl]amino]acetyl]amino]butanoyl]amino]-3-hydroxypropanoyl]amino]acetyl]-[Imp7,Acb8,His9,Lys18,Arg23,Arg26,Leu33,Thr35]-GLP-1-(7-35)-peptide amide] (I: Desaminohistidyl-[Ac4c]HGTFTSDVSKYLEGRAAREFIAWLLKT-NH2 / II: {C18 diacid-γGlu-γGlu}-SGESG; amide I:27-II:C)	0.4%	12 pM
